# Measured values from PubChem BioAssay (NCI).
#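 A five-concentration, 48-hour dose response in 96-well plates underlies each endpoint, interpolated linearly between surrounding concentrations. TGI denotes the concentration required for complete inhibition of growth.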
# Tests used:
# Experiment in all cases: NCI anticancer screen, dose series, 48 h
# SF-295 CNS = system: SF-295 CNS
# NCI-H23 lung = system: NCI-H23 lung
# M14 melanoma = system: M14 melanoma
# SK-MEL-2 melanoma = system: SK-MEL-2 melanoma
# U251 CNS = system: U251 CNS
# HOP-92 NSCLC = system: HOP-92 NSCLC
# TK-10 renal = system: TK-10 renal
# PC-3 prostate = system: PC-3 prostate
# NCI-H226 lung = system: NCI-H226 lung
SMILES,TGI (SF-295 CNS) [µM],TGI (NCI-H23 lung) [µM],TGI (M14 melanoma) [µM],TGI (SK-MEL-2 melanoma) [µM],TGI (U251 CNS) [µM],TGI (HOP-92 NSCLC) [µM],TGI (TK-10 renal) [µM],TGI (PC-3 prostate) [µM],TGI (NCI-H226 lung) [µM]
Cc1ccc(N=Nc2c(O)c3ccccc3[nH]c2=O)c(S(=O)(=O)N(C)C)c1,> 100,> 100,> 100,> 100,> 100,> 100,> 100,> 100,> 100
N/C(CC/C(N)=N\O)=N\O,> 100,> 100,> 100,> 100,> 100,> 100,> 100,> 100,> 100
COc1ccc(-n2c(CCCC(=O)O)nc3c2C(=O)c2ccccc2C3=O)cc1,> 100,> 100,39,> 100,> 100,> 100,> 100,,
COC(=O)OC[C@H]1O[C@@H](n2cc(C)c(=O)[nH]c2=O)CC1OC(=O)OC (stereo partly drawn),> 100,> 100,> 100,> 100,> 100,,> 100,> 100,> 100
C/C(=N\Nc1nc2cc(C)ccc2s1)c1ccccn1,> 40.9,11.8,3.68,1.35,,10.3,> 64,> 23.1,9.11
CCOC(=O)c1cc2cc(Cc3ccc4[nH]c(C(=O)OCC)cc4c3)ccc2[nH]1,55.5,37.9,> 100,81.1,29.9,27.8,31.4,> 100,62.4
CC12CC3c4ccccc4CN1C3(c1ccccc1)OC2=O (stereo not drawn),> 100,> 100,> 100,> 100,> 100,,> 100,> 100,> 100
CN(C)CC1CCC/C(=C\c2ccc(N(C)C)cc2)C1=O (stereo not drawn),32.2,28.7,9.46,22.3,30.7,9.79,4.96,32.2,64
O=[N+]([O-])/C(C(Cl)=C(Cl)Cl)=C1\Nc2ccccc2O1,> 100,> 100,> 100,> 100,> 100,62.4,> 100,> 100,59.7
CC1(C)CCc2c(cc3c(c2O)CCC(C)(C)O3)O1,> 100,> 100,> 100,98.3,> 100,,> 100,> 100,> 100
O=c1cnn(C2OC(CO)C(O)C(F)C2O)c(=O)[nH]1 (stereo not drawn),> 100,> 100,> 100,> 100,> 100,> 100,> 100,> 100,> 100
COC(=O)Cc1c([C@@H]2Nc3ccccc3[C@H]2CC(=O)OC)[nH]c2ccccc12,> 100,> 100,,34.8,> 100,> 100,> 100,> 100,> 100
CCCCCCCCCCCCNC(=O)NCC(OCC)OCC,> 10,> 10,> 10,> 10,> 10,> 10,> 10,> 10,> 10
COc1c2cc(C(C)(C)C)cc1CSCc1cc(C(C)(C)C)cc(c1OC)CCCCC2,> 50,> 50,> 50,> 50,> 50,,> 50,> 50,> 50
N#CI1OC(=O)c2ccccc21,> 100,> 100,> 100,> 100,> 100,,> 100,> 100,> 100
COc1c(C2(c3ccc(F)cc3)SCCCS2)c(=O)c1=O,> 100,> 100,> 100,> 100,> 100,> 100,> 100,> 100,> 100
O=S(=O)(O)c1cc(Cl)c(O)c2ncc(Cl)cc12,> 100,> 100,> 100,> 100,> 100,> 100,,> 100,> 100
N#Cc1c(-c2ccco2)c2c(n(C3OC(CO)C(O)C(O)C3O)c1=S)CCCC2 (stereo not drawn),> 100,> 100,> 100,> 100,,> 100,> 100,> 100,> 100
CC1C(c2ccc(N(C)C)cc2)c2cc3c(cc2OC1N1CCCC1)OCO3 (stereo not drawn),> 94.8,> 100,> 100,> 82.6,> 100,> 100,> 100,> 100,
c1cc(-c2cscc2-c2ccsc2)cs1,> 100,> 100,> 100,28.4,> 100,> 100,> 100,> 100,
C=C(NC(=O)C(=C)NC(=O)c1csc(C2=NC3c4csc(n4)C4NC(=O)c5csc(n5)C(C(C)(O)C(C)O)NC(=O)C5CSC(=N5)/C(=C/C)NC(=O)C(C(C)O)NC(=O)c5csc(n5)C3(CC2)NC(=O)C(C)NC(=O)C(=C)NC(=O)C(=C)NC(=O)C(C(C)C)NC2C=Cc3c(C(C)O)cc(nc3C2O)C(=O)OC4C)n1)C(N)=O (stereo not drawn),> 100,> 62.6,> 28.5,> 38.9,> 40.2,40.1,> 94.8,> 100,7.24
Cc1c2c(n3c(nc4ccccc43)c1C#N)N(c1ccc(Cl)cc1)CC2,> 100,> 100,> 100,> 100,> 100,> 100,> 100,> 100,> 100
O=S(=O)(O)c1ccc(NN(c2c(O)ccc3ccccc23)S(=O)(=O)O)cc1,> 100,> 100,> 100,> 100,> 100,,> 100,> 100,> 100
